# Laboratory results taken from patent US7109222B2, “Compounds that modulate PPAR activity and methods of preparation” (Warner-Lambert Company, LLC, priority 2002, dated 2006).
# Tests used:
# [1] = target: T1, hPPARα (Homo sapiens, UniProt Q07869); assay: Test A: transient transfection assay in HepG2 cells, Gal4-PPAR chimeric receptor, luciferase reporter (hPPARα); type: cell-based; conditions: HepG2 cells transfected with hPPARα chimeric receptor; 24 hours incubation; compound 50 μM to 50 pM; read-out: Hep G2-hα EC50
# T1 sequence (Q07869 200-468 limits assumed): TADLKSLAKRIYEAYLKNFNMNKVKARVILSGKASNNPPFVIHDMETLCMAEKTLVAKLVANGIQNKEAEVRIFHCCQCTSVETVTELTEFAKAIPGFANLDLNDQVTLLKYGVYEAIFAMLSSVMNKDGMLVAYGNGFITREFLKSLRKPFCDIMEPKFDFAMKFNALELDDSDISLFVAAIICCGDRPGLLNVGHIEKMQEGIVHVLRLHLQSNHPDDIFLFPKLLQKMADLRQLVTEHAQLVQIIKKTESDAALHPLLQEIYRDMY
# Protocol: (§1) 1. Test A. Transient Transfections Assay Using the HepG2 Hepatoma Cell Line.
# HepG2 cells were transiently transfected with an expression plasmids encoding hPPARα, hPPARβ or mPPARγ chimeric receptors and a reporter containing the yeast upstream activating sequence (UAS) upstream of the viral E1B promoter controlling a luciferase reporter gene. In addition, the plasmid pRSVβ-gal was used to control for transfection efficiency. HepG2 cells were grown in DMEM supplemented with 10% FBS and 1 μM non-essential amino acid. On the first day, cells were split into 100 mm dishes at 2.5×10^6/dish and incubated overnight at 37C.°/5% CO2. On the second day the cells were transiently transfected with plasmid DNA encoding a chimeric receptor, the luciferase reporter gene; and β-gal. For each 100 mm dish, 15 μg of lucifease reporter (PG5E1b) DNA, 15 μg of Gal4-pPAR chimeric receptor DNA, and 1.5 μg of μ-gal plasmid DNA were mixed with 1.4 ml of opti-MEM in the tube. 28 μl of LipoFectamine-2000 reagent was added to 1.4 ml of opti-MEM in the tube, and incubate for 5 min at RT. The diluted Lipofectamine-2000 reagent was combined with the DNA mixture, and incubate for 20 min at RT. After fresh medium was added to each 100 mm dish of cells, 2.8 ml of Lipofectamine2000-DNA mixture was added dropwise to the 100 mm dish containing 14 ml of medium, and incubate 37° C. overnight. On day three cells were trypsinized off the 100 mm dishes and re-plated on 96 well plates. Cells were plated at 2.5×10^4 cells per well in 150 μl of media and 50 μl of compound diluted by media was added. The concentrations of reference agents and test compound added were in the range from 50 μM to 50 pM. After addition of compounds, the plates were incubated at 37° C. for 24 hours. Subsequently cells were washed once with 100 μl of PBS, lysed, and processed for measuring luciferase and μ-gal activity using Dual-Light luciferase kit from Tropix®, according to the manufacturer's recommendations, on an EG&G Bethold MicroLumat LB96P luminometer. EC50 values were obtained using the GraphPad Prism™ program. […] Accordingly, the compounds of the present invention should find considerable therapeutic applications for hypercholesterolemia and hyperlipidemia.
# [2] = target: T2, hPPARβ (Homo sapiens, UniProt Q03181); assay: Test A: transient transfection assay in HepG2 cells, Gal4-PPAR chimeric receptor, luciferase reporter (hPPARβ); type: cell-based; conditions: HepG2 cells transfected with hPPARβ chimeric receptor; 24 hours incubation; compound 50 μM to 50 pM; read-out: Hep G2-hβ EC50
# T2 sequence (Q03181 211-441 limits assumed): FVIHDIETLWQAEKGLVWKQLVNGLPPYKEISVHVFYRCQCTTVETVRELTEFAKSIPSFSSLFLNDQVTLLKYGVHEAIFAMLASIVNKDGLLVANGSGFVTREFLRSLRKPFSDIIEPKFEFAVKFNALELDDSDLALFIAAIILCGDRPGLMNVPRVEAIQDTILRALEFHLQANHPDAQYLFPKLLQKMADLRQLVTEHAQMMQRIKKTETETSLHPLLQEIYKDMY
# Protocol: as §1
# HepG2 cells were transiently transfected with an expression plasmids encoding hPPARα, hPPARβ or mPPARγ chimeric receptors and a reporter containing the yeast upstream activating sequence (UAS) upstream of the viral E1B promoter controlling a luciferase reporter gene. In addition, the plasmid pRSVβ-gal was used to control for transfection efficiency. HepG2 cells were grown in DMEM supplemented with 10% FBS and 1 μM non-essential amino acid. On the first day, cells were split into 100 mm dishes at 2.5×10^6/dish and incubated overnight at 37C.°/5% CO2. On the second day the cells were transiently transfected with plasmid DNA encoding a chimeric receptor, the luciferase reporter gene; and β-gal. For each 100 mm dish, 15 μg of lucifease reporter (PG5E1b) DNA, 15 μg of Gal4-pPAR chimeric receptor DNA, and 1.5 μg of μ-gal plasmid DNA were mixed with 1.4 ml of opti-MEM in the tube. 28 μl of LipoFectamine-2000 reagent was added to 1.4 ml of opti-MEM in the tube, and incubate for 5 min at RT. The diluted Lipofectamine-2000 reagent was combined with the DNA mixture, and incubate for 20 min at RT. After fresh medium was added to each 100 mm dish of cells, 2.8 ml of Lipofectamine2000-DNA mixture was added dropwise to the 100 mm dish containing 14 ml of medium, and incubate 37° C. overnight. On day three cells were trypsinized off the 100 mm dishes and re-plated on 96 well plates. Cells were plated at 2.5×10^4 cells per well in 150 μl of media and 50 μl of compound diluted by media was added. The concentrations of reference agents and test compound added were in the range from 50 μM to 50 pM. After addition of compounds, the plates were incubated at 37° C. for 24 hours. Subsequently cells were washed once with 100 μl of PBS, lysed, and processed for measuring luciferase and μ-gal activity using Dual-Light luciferase kit from Tropix®, according to the manufacturer's recommendations, on an EG&G Bethold MicroLumat LB96P luminometer. EC50 values were obtained using the GraphPad Prism™ program.
EC50 [1] [µM],EC50 [2] [µM],melting point [°C],SMILES
2.19,2.13,139 to 140,"Cc1nc(-c2ccc(C(F)(F)F)cc2)sc1CSc1ccc2c(c1)CC(C(=O)O)CO2 (stereo not shown) [Example 17, 6-[4-methyl-2-(4-trifluoromethyl-pheny)-thiazol-5-ylmethylsulfanyl]-chroman-3-carboxylic acid]"
1.3,0.252,,"Cc1cc2c(cc1SCc1sc(-c3ccc(C(F)(F)F)cc3)nc1C)CCC(CC(=O)O)O2 (stereo not shown) [Example 15, 7-Methyl-6-[4-methyl-2-(4-trifluoromethyl-pheny)-thiazol-5-ylmethylsulfanyl]-chroman-2-yl-acetic acid]"
1.19,0.0241,,"COc1cc2c(cc1SCc1sc(-c3ccc(C(F)(F)F)cc3)nc1C)CCC(CC(=O)O)C2 (stereo not shown) [Example 13, {7-Methoxy-6-[4-methyl-2-(4-trifluoromethyl-phenyl)-thiazol-5-ylmethylsulfanyl]-1,2,3,4-tetrahydro-naphthalen-2-yl}-acetic acid]"
,0.111,,"Cc1nc(-c2ccc(C(F)(F)F)cc2)sc1CSc1ccc2c(c1)CCN(CC(=O)O)C2 [Example 10, {6-[4-Methyl-2-(4-trifluoromethyl-phenyl)-thiazol-5-ylmethylsulfanyl]-3,4-dihydro-1H-isoquinolin-2-yl}-acetic acid]"
,3.47,,"Cc1nc(-c2ccc(C(F)(F)F)cc2)sc1CSc1ccc2c(c1)CCC(C)(CC(=O)O)O2 (stereo not shown) [Example 8, {2-methyl-6-[4-methyl-2-(4-trifluoromethyl-phenyl)-thiazol-5-ylmethylsulfanyl]-chroman-2-yl}-acetic acid]"
2.04,,207 to 209,"Cc1nc(-c2ccc(C(F)(F)F)cc2)sc1CSc1ccc2oc(C(=O)O)cc2c1 [Example 6, 5-[4-methyl-2-(4-trifluoromethyl-phenyl)-thiazol-5-ylmethylsulfanyl]-benzofuran-2-carboxylic acid]"
0.384,0.178,,"Cc1nc(-c2ccc(C(F)(F)F)cc2)sc1CSc1ccc2c(c1)CC(C(=O)O)C2 (stereo not shown) [Example 1, 5-[4-methyl-2-(4-trifluoromethyl-phenyl)-thiazol-5-ylmethylsulfanyl]-indan-2-carboxylic acid]"
,,245 to 247,"COc1cc2on(CC(=O)O)c(=O)c2cc1SCc1sc(-c2ccc(C(F)(F)F)cc2)nc1C [Example 22, 6-Methoxy-5-[4-Methyl-2-(4-trifluoromethyl-pheny)-thiazol-5-ylmethylsulfanyl]-3-oxo-3H-benzo[d]isoxazo-2-yl-acetic-acid]"
,0.614,,"Cc1nc(-c2ccc(C(F)(F)F)cc2)sc1CSc1ccc2c(c1)CCC(CC(=O)O)C2=O (stereo not shown) [Example 7, {6-[4-Methyl-2-(4-trifluoromethylphenyl)thiazol-5-ylmethylsulfanyl]-1-oxo-3,4-dihydro-1H-naphthalen-2-yl}-acetic acid]"
0.899,1.54,,"Cc1nc(-c2ccc(C(F)(F)F)cc2)sc1CSc1ccc2c(c1)CC(CC(=O)O)O2 (stereo not shown) [Example 4, {5-[4-Methyl-2-(4-trifluoromethyl-phenyl)-thiazol-5-ylmethylsulfanyl]-2,3-dihydro-benzofuran-2-yl}-acetic acid]"
,0.896,,Cc1nc(-c2ccc(C(F)(F)F)cc2)sc1CSc1ccc2c(c1)CCC(=O)N2CC(=O)O [Example 12]
3.74,0.0083,,Cc1nc(-c2ccc(C(F)(F)F)cc2)sc1CSc1ccc2c(c1)CCC(CC(=O)O)O2 (stereo not shown) [Example 5]
1.96,0.267,,"Cc1nc(-c2ccc(C(F)(F)F)cc2)sc1CSc1ccc2c(c1)CC(CC(=O)O)C2 (stereo not shown) [Example 2, {5-[4-methyl-2-(4-trifluoromethyl-phenyl)-thiazol-5-ylmethylsulfanyl]-indan-2-yl}-acetic acid]"
0.572,,,"Cc1nc(-c2ccc(C(F)(F)F)cc2)sc1COc1ccc2c(CC(=O)O)csc2c1 [Example 23, {6-[4-Methyl-2-(4-trifluoromethyl-phenyl)-thiazol-5-ylmethoxy]-benzo[b]thiophen-3-yl}-acetic acid]"
1.93,0.286,,"Cc1nc(-c2ccc(C(F)(F)F)cc2)sc1CSc1ccc2c(c1)CCCN2CC(=O)O [Example 11, {6-[4-methyl-2-(4-trifluoromethyl-phenyl)-thiazol-5-ylmethylsulfanyl]-3,4-dihydro-2H-quinolin-1-yl}-acetic acid]"
0.042,0.113,,"COc1cc2c(cc1SCc1sc(-c3ccc(C(F)(F)F)cc3)nc1C)CCC2CC(=O)O (stereo not shown) [Example 19, {6-Methoxy-5-[4-methyl-2-(4-trifluoromethyl-phenyl)-thiazol-5-ylmethylsulfanyl]-indan-1-yl}-acetic acid]"
1000,0.394,149 to 149.5,"Cc1nc(-c2ccc(C(F)(F)F)cc2)sc1CSc1ccc2c(c1)CC(CC(=O)O)CO2 (stereo not shown) [Example 18, 6-[4-methyl-2-(4-trifluoromethyl-pheny)-thiazol-5-ylmethylsulfanyl]-chroman-3-yl-acetic acid]"
,2.21,,"Cc1nc(-c2ccc(C(F)(F)F)cc2)sc1CSc1ccc2c(c1)C=C(C(=O)O)CO2 [Example 16, 6-[4-methyl-2-(4-trifluoromethyl-pheny)-thiazol-5-ylmethylsulfanyl]-2H-chromene-3-carboxylic acid]"
0.917,0.762,,Cc1nc(-c2ccc(C(F)(F)F)cc2)sc1CSc1ccc2c(c1)CCC(C(=O)O)O2 (stereo not shown) [Example 3]
,0.019,,"COc1cc2c(cc1SCc1sc(-c3ccc(C(F)(F)F)cc3)nc1C)CCC(CC(=O)O)O2 (stereo not shown) [Example 14, 7-methoxy-6-[4-methyl-2-(4-trifluoromethyl-pheny)-thiazol-5-ylmethylsulfanyl]-chroman-2-yl-acetic acid]"
